In PubChem BioAssay AID179 (DTP/NCI, 2004) one finds EC50, IC50 and outcome data, which are given here for 25 compounds.

Calls of active or inactive are those of the source.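 How the source made its calls: active means compounds giving half or more protection of infected cells from virus-caused growth loss, again on retest; inactive means the rest.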 Where a SMILES comes first, the peptide text is derived from it.

The assay deals with CEM cells HIV-1 protection, formazan growth assay. Put plainly: NCI AIDS Antiviral Assay. To be noted: for IC50: measured here: growth of uninfected CEM cells. In short, it runs like this: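 Soluble formazan readout of cell growth; CEM cells ± HIV-1; 5 drug concs. ≥50% protection → retest; ≥50% again = moderately active; reproducible 100% = confirmed active.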

On to `CC1=C(/C=C/C(C)=C/C=C/C(C)=C/C=C/C=C(C)/C=C/C=C(C)/C=C/C=C(C)/C=C/C=C(\C)C(=O)O)C(C)(C)CCC1`, for which the EC50 is greater than 4.79 µM and the IC50 was greater than 4.79 µM.

For the compound `COc1ccc(C2OC(=O)c3cc[nH]c(=O)c32)cc1` (stereo unspecified), the EC50 was greater than 141 µM and the IC50 was greater than 141 µM.

In the case of `CN1C(=O)/C(=C2\SC(=O)N(CN3CCCCC3)C2=O)c2ccccc21`, the EC50 is greater than 200 µM and the 50% inhibitory concentration (IC50) is 27.5 µM.

As for `CC(=O)O[C@H]1CC[C@@]2(C)C(=CC[C@@H]3C2CC[C@@]2(C)C3CC[C@@H]2c2nc(C)cs2)C1` (stereo partly specified), the EC50 was greater than 60.3 µM and the IC50 is greater than 60.3 µM.

As for `C[n+]1c2ccccc2c(/C=N\NS(=O)(=O)c2ccc(O)c(C(=O)O)c2)c2ccccc21`, the outcome was inactive.

`CC(=O)/C(=C/c1ccc(N(C)C)cc1)c1ccccc1`: the EC50 is greater than 19.5 µM and the IC50 was greater than 19.5 µM.

Consider `NC1=NCN2C(=N1)OC1C(O)C(CO)OC12` (stereo unspecified), for which the EC50 is greater than 200 µM and the IC50 is greater than 200 µM.

For `O=C1CC(c2ccsc2)n2cccc21` (stereo unspecified), the EC50 is 186 µM and the IC50 was greater than 200 µM.

On to `Cc1ccc(-n2c(=S)n(-c3ccccc3C)c3nc4ccccc4nc2/c3=N\Nc2ccc(Cl)cc2)cc1`, for which the EC50 is 117 µM and the concentration for half-maximal inhibition (IC50) was determined as 123 µM.

With `CC(C)CC(NC(=O)C(Cc1ccc(O)cc1)NC(=O)C(CO)NC(=O)C(CCC(=O)O)NC(=O)C1CCCN1C(=O)C(CC(C)C)NC(=O)C(C)NC(=O)CNC(=O)C(N)CCC(=O)O)C(=O)NCC(=O)O` (stereo unspecified) (H-EGALPESYLG-OH; configuration not given here), the outcome was inactive.

For the compound `CN1C(C(=O)Nc2nccs2)=C(O)c2ccccc2S1(=O)=O`, the EC50 is greater than 200 µM and the IC50 was determined as 191 µM.

As for `Cc1nc(-n2nc(-c3ccccc3)cc2-c2ccccc2)sc1C(=O)/C=C/c1ccc([N+](=O)[O-])cc1`, the EC50 is greater than 38 µM and the concentration for half-maximal inhibition (IC50) is 30.9 µM.

For `O=[N+]([O-])c1cc(S(=O)(=O)c2ccc(S)c([N+](=O)[O-])c2)ccc1S`, the result was inactive.

Take `C[C@@H]1[C@@H](c2ccccc2)C12C(=O)NC(=O)NC2=O`: the EC50 is greater than 200 µM and the IC50 is greater than 200 µM.

As for `CCOC(=O)C1C(=O)[C@H](C(=O)OC)C2CCCC3CCCC1N32` (stereo partly specified), the EC50 is greater than 200 µM and the IC50 was greater than 200 µM.

On to `O=C(CNc1ccccc1[N+](=O)[O-])Nn1cnc2ccc(S(=O)(=O)Nc3ccccc3[N+](=O)[O-])cc2c1=O`, for which the EC50 was greater than 200 µM and the IC50 was greater than 200 µM.

With `O=C1CCC(=O)N1Cc1ccccc1N=[N+]([O-])c1ccccc1CN1C(=O)CCC1=O`, the outcome was inactive and the IC50 is greater than 200 µM.

`CC(C)(C)[Si](C)(C)OCC1OC(n2ccc(=O)[nH]c2=O)C(CCN(O)CC2OC(n3ccc(=O)[nH]c3=O)C(O[Si](C)(C)C(C)(C)C)C2O[Si](C)(C)C(C)(C)C)C1O[Si](C)(C)C(C)(C)C` (stereo unspecified): the EC50 is greater than 126 µM and the IC50 is 105 µM.

Regarding `CCN(CC)CCNc1ccc2ncn3c4c(OC)ccc(OC)c4c(=O)c1c23`, the EC50 is greater than 50.1 µM and the IC50 amounted to 1.23 µM.

Turning to `CSC(=S)Nc1cc(C)ccn1`, the EC50 was greater than 200 µM and the IC50 came out at 155 µM.

For the compound `O=S(=O)(c1ccccc1)n1cnc(CCc2ccccc2)n1`, the EC50 is greater than 794 µM and the half-maximal inhibitory concentration (IC50) is greater than 794 µM.

In the case of `N/N=C(\C(=O)Nc1ccc(Cl)cc1Cl)C(c1cnc2ccccc2n1)[N+](=O)[O-]` (stereo unspecified), the EC50 was greater than 120 µM and the concentration for half-maximal inhibition (IC50) is greater than 120 µM.

On to `CCOC(=O)c1c(SC(=O)C(C)(C)Oc2ccc(Cl)cc2)n(-c2ccccc2)c(=S)n(-c2ccccc2)c1=O`, for which the EC50 is greater than 200 µM and the IC50 was 9.55 µM.

For the compound `CCOC(=O)c1c2nc3ccccc3sc-2c(C(=O)OCC)c1C(=O)OCC`, the EC50 was greater than 20 µM and the IC50 worked out at 0.977 µM.

Turning to `O=c1[nH]nc(-c2ccccc2)n1/N=C\CC/C=N\n1c(-c2ccccc2)n[nH]c1=O`, the result was inactive.
